Source: the NIST ThermoML archive (doi:10.1016/j.jct.2016.02.015)

Assay: excess molar enthalpy (molar enthalpy of mixing); xn = mol fraction of the nth substance listed
Details: 100 kPa, Liquid, Calvet calorimetry

[Li] [lithium] + [Ga]
Details | excess molar enthalpy [kcal/mol]
873 K, x1 = 0.703 | -4.64
873 K, x1 = 0.7734 | -3.87
873 K, x1 = 0.8058 | -3.44
873 K, x1 = 0.8391 | -2.92
873 K, x1 = 0.865 | -2.51
873 K, x1 = 0.894 | -2.03
873 K, x1 = 0.9218 | -1.53
873 K, x1 = 0.9468 | -0.98
873 K, x1 = 0.9801 | -0.335
992 K, x1 = 0.0908 | -1.22
992 K, x1 = 0.1797 | -2.44
992 K, x1 = 0.2283 | -3.06
992 K, x1 = 0.3064 | -3.85
992 K, x1 = 0.3748 | -4.47
1039 K, x1 = 0.4284 | -4.73
1039 K, x1 = 0.5421 | -5.07
1039 K, x1 = 0.652 | -4.78
1039 K, x1 = 0.7322 | -4.06
1039 K, x1 = 0.7709 | -3.54
1039 K, x1 = 0.7991 | -3.06
1039 K, x1 = 0.8282 | -2.68
